The structures appear in SMILES notation. Values after ≈ are worked out from the molar mass of the structure shown.

The species named for one assay is Oryctolagus cuniculus. Nature of the assay: Compound was tested for the in vitro smooth muscle contractile activity. Type of assay: functional. To be noted: Muscle tissue.
Assay [1] concerns the target T1, Motilin receptor (Homo sapiens, UniProt O43193). Nature of the assay: Compound was tested for in vitro motilin receptor binding affinity after treatment with hydrochloric acid solution (pH 2.5).
For assay [2], the target named is T1, Motilin receptor. The experiment in a line: Compound was tested for in vitro motilin receptor binding affinity.
Assay [3] concerns Canis familiaris. The experiment in a line: Motor index (MI) was reported in vivo for smooth muscle contractile activity after i.v. administration of the compound. Type of assay: functional, Canis lupus familiaris, Muscle tissue.
For another assay, the system named is Streptococcus pneumoniae. Nature of the assay: Tested for the minimum inhibitory concentration by agar dilution method against Streptococcus pneumoniae No. 12. In kind it is functional. (In general: Agar dilution tests growth on a series of plates holding different concentrations.)
The next assay concerns Staphylococcus aureus. Nature of the assay: Tested for the minimum inhibitory concentration by agar dilution method against Staphylococcus aureus 209P. In kind it is functional.
Another assay concerns Klebsiella pneumoniae. Nature of the assay: Tested for the minimum inhibitory concentration by agar dilution method against Klebsiella pneumoniae IFO 3512. Type of assay: functional.
A further assay relates to Escherichia coli. Nature of the assay: Tested for the minimum inhibitory concentration by agar dilution method against Escherichia coli NIHJ JC-2. In kind it is functional.
The subject of another assay is Bacillus subtilis. Nature of the assay: Compound was tested for the minimum inhibitory concentration by agar dilution method against Bacillus subtilis ATCC 6633. Type of assay: functional.
The test system of assay [4] is Canis familiaris. Nature of the assay: Motor index (MI) was reported in vivo for smooth muscle contractile activity after i.g. administration of the compound. In kind it is functional, Canis lupus familiaris, Muscle tissue.

T1 sequence (O43193 whole entry): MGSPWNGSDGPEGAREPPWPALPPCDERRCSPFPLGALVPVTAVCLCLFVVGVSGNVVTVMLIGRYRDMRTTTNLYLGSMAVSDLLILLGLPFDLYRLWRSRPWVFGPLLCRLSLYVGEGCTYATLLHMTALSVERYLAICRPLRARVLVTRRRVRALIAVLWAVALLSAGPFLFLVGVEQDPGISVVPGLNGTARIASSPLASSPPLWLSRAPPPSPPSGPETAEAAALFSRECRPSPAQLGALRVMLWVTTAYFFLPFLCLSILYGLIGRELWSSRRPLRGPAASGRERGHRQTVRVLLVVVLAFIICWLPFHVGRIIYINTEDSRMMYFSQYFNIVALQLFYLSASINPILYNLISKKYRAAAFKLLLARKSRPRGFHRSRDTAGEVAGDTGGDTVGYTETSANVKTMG

A word on the EC50: it is the concentration needed to bring the measured effect to its halfway point. Read a high EC50 as lower potency in that assay. The IC50 is the concentration at which inhibition is half-maximal. As for `CCC1OC(=O)C(C)C(O[C@H]2C[C@@](C)(OC)[C@@H](O)C(C)O2)C(C)[C@@H](OC2OC(C)CC(N(C)C)[C@H]2O)[C@]2(C)CC(C)C3(O[C@]1(C)[C@H](O)[C@H]3C)O2` (stereo not given in full), the EC50 in the assay filed under Oryctolagus cuniculus is over 10000 nM. In addition, the results for the IC50 on Motilin receptor [1] and at Motilin receptor [2] were 170 nM and 155 nM, respectively. This compound also displayed an MI100 in the assay with Canis familiaris [3] of over 70 µg/kg.
As usually defined, the MIC is the smallest concentration in the dilution series that meets the test's criterion for growth inhibition. High values mean weaker potency, low ones greater potency. Consider `CCC1OC(=O)C(C)C(O[C@H]2C[C@@](C)(OC)[C@@H](O)C(C)O2)C(C)[C@@H](OC2OC(C)CC(N(C)CC)[C@H]2O)[C@]2(C)CC(C)=C(O2)[C@H](C)[C@@H](O)[C@]1(C)OC` (stereo not given in full), for which a half-maximal effect in the assay listed under Oryctolagus cuniculus (EC50) was put at 22.9 nM. Further, the MIC is 50 µM (≈ 37.2 µg/mL) in the assay on Streptococcus pneumoniae; over 200 µM in the assay on Staphylococcus aureus; over 200 µM against Klebsiella pneumoniae; over 200 µM with Escherichia coli; over 200 µM against Bacillus subtilis. For the same compound, the results for the IC50 at Motilin receptor [1] and at Motilin receptor [2] were 8.32 nM and 4.68 nM, respectively.
In turn, `CCC1OC(=O)C(C)C(O[C@H]2C[C@@](C)(OC)[C@@H](O)C(C)O2)C(C)[C@@H](OC2OC(C)CC(N(C)C)[C@H]2O)[C@]2(C)CC(C)=C(O2)[C@H](C)[C@@H](O)[C@]1(C)OC` (stereo not given in full) had an EC50 in the assay listed under Oryctolagus cuniculus of 19.5 nM. Further, the MIC is 1.6 µM (≈ 1.17 µg/mL) against Streptococcus pneumoniae; 25 µM (≈ 18.2 µg/mL) in the assay on Staphylococcus aureus; 200 µM (≈ 146 µg/mL) against Klebsiella pneumoniae; over 200 µM in the assay with Escherichia coli; 6.3 µM (≈ 4.6 µg/mL) with Bacillus subtilis. Further, the figures for the half-maximal inhibitory concentration (IC50) on Motilin receptor [1] and at Motilin receptor [2] were 39.8 nM and 7.59 nM, respectively.
For `CCC1OC(=O)C(C)C(O[C@H]2C[C@@](C)(OC)[C@@H](O)C(C)O2)C(C)[C@@H](OC2OC(C)CC(N(C)C(C)C)[C@H]2O)[C@]2(C)CC(C)=C(O2)[C@H](C)[C@@H](O)[C@]1(C)OC` (stereo not given in full), in the assay listed under Oryctolagus cuniculus, the EC50 is 12.9 nM. The MIC is 200 µM (≈ 152 µg/mL) against Streptococcus pneumoniae; over 200 µM in the assay with Staphylococcus aureus; over 200 µM against Klebsiella pneumoniae; over 200 µM against Escherichia coli; over 200 µM with Bacillus subtilis. Moreover, the IC50 on Motilin receptor [1] is 15.1 nM; on Motilin receptor [2], 6.92 nM. In addition, the MI100 stood at 1.2 µg/kg with Canis familiaris [4] and 0.44 µg/kg with Canis familiaris [3].
Regarding `CC[C@H]1OC(=O)[C@H](C)[C@@H](O[C@H]2C[C@@](C)(OC)[C@@H](O)[C@H](C)O2)[C@H](C)[C@@H](OC2O[C@H](C)C[C@H](N(C)C)[C@H]2O)C(C)(O)C[C@@H](C)C(=O)[C@H](C)[C@@H](O)[C@]1(C)O` (single isomer, unassigned) [ERYTHROMYCIN], in the assay filed under Oryctolagus cuniculus, the midpoint of the response, the EC50, lay at 316 nM. For the same compound, the MIC against Streptococcus pneumoniae amounted to 0.1 µM (≈ 0.0734 µg/mL); against Staphylococcus aureus, 0.39 µM (≈ 0.286 µg/mL); with Klebsiella pneumoniae it was 6.3 µM (≈ 4.62 µg/mL); against Escherichia coli it was 100 µM (≈ 73.4 µg/mL); in the assay on Bacillus subtilis it was 0.39 µM (≈ 0.286 µg/mL). For the same compound, the MI100 in the assay on Canis familiaris [3] was determined as 32.3 µg/kg.
Consider `CC[C@H]1OC(=O)[C@H](C)[C@@H](O[C@H]2C[C@@](C)(OC)[C@@H](O)[C@H](C)O2)[C@H](C)[C@@H](OC2O[C@H](C)C[C@H](N(C)C)[C@H]2O)C2(C)CC(C)=C(O2)[C@H](C)[C@@H](O)[C@]1(C)O` (single isomer, unassigned), for which the IC50 at Motilin receptor [1] was 224 nM; on Motilin receptor [2], 3.39 nM. In addition, the MI100 with Canis familiaris [3] is 1 µg/kg.
